Columns and labels:
ClpB hexamers = biological target: T1, ClpB hexamers (Escherichia coli, UniProt P63284); assay: Sedimentation velocity analytical ultracentrifugation of ClpB; details: 50 µM DBeQ, 1 mM ATPγS, 1 mg/ml ClpB
T1 construct: made in house
Description: Protein samples (0.5 ml) of wt ClpB and its variants W462F and W543F were dialyzed against 3 changes of 1 l of buffer AUC (50-mM Tris-HCl, pH 7.4, 200-mM KCl, 20-mM MgCl2, 1-mM EDTA, 0.5-mM TCEP). After dialysis, the samples were centrifuged (15 min, 13,000 RPM, 4 °C). The supernatants were collected, and the protein concentration was determined with the Bradford assay. Sedimentation velocity experiments were performed in Beckman Optima XL-I analytical ultracentrifuge equipped with a 4-cell rotor and 2-sector cells. The ClpB samples were diluted to 1 mg/ml in the AUC buffer supplemented with DMSO (5% (v/v) final concentration) with 1-mM ATPɤS, with or without 50-μM DBeQ. Centrifugation was performed at 48,000 RPM at 20 °C. The sedimentation profiles were collected using the interference detection system and analyzed with the Origin software supplied by the instrument manufacturer using the time-derivative method of Stafford ([71]). Observed sedimentation coefficients were corrected to values corresponding to the density and viscosity of water (s20,w) using Sednterp software (www.jphilo.mailway.com) with additional corrections for the presence of 5% DMSO ([72]).

DnaK = biological target: T2, DnaK (Escherichia coli, UniProt P0A6Y8); assay: DnaK binding to FITC-B2 peptide, fluorescence anisotropy; details: FITC-B2 20 nM, increasing DBeQ
T2 construct: full-length E. coli DnaK (residues 1–638); made in house; host or cells: E. coli BL21(DE3)
Description: To monitor interactions between the peptide B2 and DnaK, the DnaK stock was diluted in buffer C (50-mM Tris-HCl, pH 7.4, 20-mM MgCl2, 1-mM EDTA, 0.5-mM TCEP) to a final concentration of 1 μM. DBeQ solutions in DMSO (20 μl) were mixed with 372 μl of 1-μM DnaK. After 10 min of incubation at room temperature, the samples were supplemented with 8 μl of 1-μM FITC-B2 in buffer C (FITC-Ahx-[…]-NH2) ([51]). The FITC-B2 sample without DnaK was used as a control. After a 30-min incubation at room temperature, fluorescence anisotropy of FITC-B2 was measured with a PerkinElmer LS55 (λexc = 485 nm (slit: 15 nm), λem = 521 (slit: 20 nm)).

ClpB = biological target: T3, ClpB (Escherichia coli, UniProt P63284); assay: Pilot chemical library screen of ClpB ATPase (BioMol Green); assay type: biochemical; details: 388 bioactive compounds, in the presence of 25 μM κ-casein
T3 construct: made in house
Description: An absorbance-based assay for ClpB ATPase activity was developed by using BioMol Green Reagent (Enzo Life Sciences, Farmington, NY) for screening in a 384-microplate–based format. The optimized assay conditions were as follows: ClpB (150 nM), ATP ([…]), and κ-casein (25 μM) in 100-mM Tris/HCl, pH 8, 10-mM MgCl2, 1-mM DTT, and 1-mM EDTA. The samples were incubated for 10 min at 37 °C, and the ATP hydrolysis reaction was terminated by adding 80 μl of BIOMOL Green. Absorbance at 620 nm was measured with a PerkinElmer EnSpire. The optimized assay was used to screen compounds drawn from Selleck Bioactive library (1900 compounds; Selleck Chemicals, Houston, TX) in the presence or absence of κ-casein.

ClpB W543F = biological target: T4, ClpB W543F (Escherichia coli, UniProt P63284, W543F); assay: Surface plasmon resonance, immobilized ClpB W543F; assay type: binding
T4 construct: made in house
Description: ClpB, DnaK, and the NBD of DnaK were extensively dialyzed against the SPR buffer (20-mM Hepes, pH 7.4, 150-mM NaCl, 20-mM MgCl2, 1-mM EDTA, 1-mM DTT). After dialysis, the protein concentration was determined by the Bradford method. The DBeQ–protein interactions were studied using a Biacore T200 instrument (GE Healthcare) at 25 °C. The proteins were diluted to 300 μg/ml in 10-mM sodium acetate buffer (pH 5 for ClpB DnaK or pH 4 for NBD) and immobilized on HC1500M sensor chips (Xantec) by standard amine coupling chemistry as described previously ([70]). A reference flow cell was created by ethyl(dimethylaminopropyl) carbodiimide/N-hydroxysuccinimide activation followed by quenching with 1 M ethanolamine (pH 9.0). Solvent correction curves were obtained at the beginning and end and after every 50 injection cycles by injecting varying DMSO concentrations (4.0, 4.4, 4.6, 4.8, 5.0, 5.2, 5.4, and 5.9% [v/v]). All experiments were performed using a flow rate of 30 μl/min.
Binding isotherms were obtained with the ligand diluted to different concentrations in the SPR running buffer HBSMTD (20-mM Hepes, pH 7.4, 140-mM NaCl, 20-mM MgCl2, 5% (v/v) DMSO, 0.005% (v/v) Tween-20). Replicate injections were performed for all samples, and a buffer-only injection was performed for every 12 injection cycles. To test the structural integrity of ClpB after immobilization on the sensor chips, we performed control titrations with ATPγS and adenosine. The dissociation constants determined from those experiments were ∼20 μM for ATPγS and ∼2 mM for adenosine. […] Moreover, the immobilized ClpB discriminated between a nucleotide analog and a nucleoside, which indicated an adequate structural integrity of ClpB on the sensor chips.
The resulting sensorgrams were analyzed using Biacore T200 Evaluation Software v3.0 according to the following procedure. Solvent correction curves were generated and applied to all data sets, and all sensorgrams were double-referenced by subtracting the most recent buffer blank injection. […]

T4 sequence (P63284 whole entry W543F, looked up): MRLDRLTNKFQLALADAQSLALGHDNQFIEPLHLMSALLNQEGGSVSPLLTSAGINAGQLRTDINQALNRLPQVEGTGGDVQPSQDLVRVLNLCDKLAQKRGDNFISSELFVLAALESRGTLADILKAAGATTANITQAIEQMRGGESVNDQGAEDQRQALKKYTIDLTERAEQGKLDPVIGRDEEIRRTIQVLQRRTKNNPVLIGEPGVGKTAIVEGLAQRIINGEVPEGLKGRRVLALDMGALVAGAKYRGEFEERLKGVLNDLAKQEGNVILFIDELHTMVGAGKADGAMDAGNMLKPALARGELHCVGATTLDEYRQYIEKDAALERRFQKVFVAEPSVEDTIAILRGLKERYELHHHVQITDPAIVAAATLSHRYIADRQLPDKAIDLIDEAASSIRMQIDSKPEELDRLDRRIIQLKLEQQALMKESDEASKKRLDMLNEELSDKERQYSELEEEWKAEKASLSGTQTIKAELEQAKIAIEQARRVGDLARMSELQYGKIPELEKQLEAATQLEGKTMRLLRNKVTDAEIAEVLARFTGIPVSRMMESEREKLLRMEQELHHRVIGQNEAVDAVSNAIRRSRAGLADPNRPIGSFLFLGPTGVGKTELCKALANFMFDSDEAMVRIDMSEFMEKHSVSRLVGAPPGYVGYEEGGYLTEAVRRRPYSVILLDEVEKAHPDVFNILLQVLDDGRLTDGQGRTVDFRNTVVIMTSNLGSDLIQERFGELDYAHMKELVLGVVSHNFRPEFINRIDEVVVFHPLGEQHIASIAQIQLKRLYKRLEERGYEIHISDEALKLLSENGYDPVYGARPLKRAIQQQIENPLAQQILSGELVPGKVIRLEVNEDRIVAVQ
T1 sequence (P63284 whole entry): as the sequence (P63284 whole entry W543F, looked up) above, with F543W counted along it
T3 sequence (P63284 whole entry): as the sequence (P63284 whole entry W543F, looked up) above, with F543W counted along it
T2 sequence (P0A6Y8 whole entry, the tested form may be a part): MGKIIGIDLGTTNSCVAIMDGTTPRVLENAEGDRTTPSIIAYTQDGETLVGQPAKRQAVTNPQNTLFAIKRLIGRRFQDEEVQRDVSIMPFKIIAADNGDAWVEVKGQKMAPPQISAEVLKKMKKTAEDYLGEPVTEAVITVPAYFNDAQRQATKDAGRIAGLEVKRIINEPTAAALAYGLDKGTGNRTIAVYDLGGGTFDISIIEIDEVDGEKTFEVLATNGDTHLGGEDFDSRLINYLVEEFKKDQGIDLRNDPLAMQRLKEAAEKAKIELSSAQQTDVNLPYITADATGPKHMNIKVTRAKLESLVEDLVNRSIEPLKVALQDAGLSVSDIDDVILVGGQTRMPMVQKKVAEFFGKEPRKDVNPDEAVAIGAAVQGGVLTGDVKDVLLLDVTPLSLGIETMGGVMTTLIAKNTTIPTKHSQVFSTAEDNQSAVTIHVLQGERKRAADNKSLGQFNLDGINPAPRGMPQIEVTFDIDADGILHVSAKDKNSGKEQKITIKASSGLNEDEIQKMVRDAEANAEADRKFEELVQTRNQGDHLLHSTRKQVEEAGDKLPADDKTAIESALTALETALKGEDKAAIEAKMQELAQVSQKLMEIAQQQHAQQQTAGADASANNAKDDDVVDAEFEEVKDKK

Compound: c1ccc(CNc2nc(NCc3ccccc3)c3ccccc3n2)cc1 [DBeQ, N^2,N^4-dibenzylquinazoline-2,4-diamine]
- dissociation of ClpB hexamers (ClpB hexamers): does not induce dissociation
- suppression of DnaK binding to substrate-mimicking peptide (DnaK): did not detect
- candidate ClpB ATPase inhibitor in pilot screen (ClpB): candidate ClpB ATPase inhibitor
- Kd (ClpB W543F): 59.1 ± 4.1 µM
- Bmax (SPR signal at saturation), ClpB W543F (ClpB W543F; SPR): 1.07 ± 0.03
- Hill coefficient, ClpB W543F (ClpB W543F; SPR): 2.4 ± 0.4
